Results: patent US10758534B2 (Vertex Pharmaceuticals Incorporated, priority 2014, dated 2020)

Target: T1, F508del (Homo sapiens, UniProt P13569, DEL508-508)
T1 construct: expressed in transfected cells
Experiment: Protocol 1: membrane potential optical assay (FLIPR III, voltage sensing dye), identification of potentiator compounds
Type: cell-based
Settings: Table 3, compounds of Table 1
Outline: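 Membrane potential in forskolin-activated, temperature-rescued F508del NIH 3T3 cells is followed with a voltage-sensing dye on FLIPR III. A chloride ion gradient created at the single addition step provides the driving force, after prior compound treatment.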

T1 sequence (P13569 with tags, fused parts or gaps DEL508-508): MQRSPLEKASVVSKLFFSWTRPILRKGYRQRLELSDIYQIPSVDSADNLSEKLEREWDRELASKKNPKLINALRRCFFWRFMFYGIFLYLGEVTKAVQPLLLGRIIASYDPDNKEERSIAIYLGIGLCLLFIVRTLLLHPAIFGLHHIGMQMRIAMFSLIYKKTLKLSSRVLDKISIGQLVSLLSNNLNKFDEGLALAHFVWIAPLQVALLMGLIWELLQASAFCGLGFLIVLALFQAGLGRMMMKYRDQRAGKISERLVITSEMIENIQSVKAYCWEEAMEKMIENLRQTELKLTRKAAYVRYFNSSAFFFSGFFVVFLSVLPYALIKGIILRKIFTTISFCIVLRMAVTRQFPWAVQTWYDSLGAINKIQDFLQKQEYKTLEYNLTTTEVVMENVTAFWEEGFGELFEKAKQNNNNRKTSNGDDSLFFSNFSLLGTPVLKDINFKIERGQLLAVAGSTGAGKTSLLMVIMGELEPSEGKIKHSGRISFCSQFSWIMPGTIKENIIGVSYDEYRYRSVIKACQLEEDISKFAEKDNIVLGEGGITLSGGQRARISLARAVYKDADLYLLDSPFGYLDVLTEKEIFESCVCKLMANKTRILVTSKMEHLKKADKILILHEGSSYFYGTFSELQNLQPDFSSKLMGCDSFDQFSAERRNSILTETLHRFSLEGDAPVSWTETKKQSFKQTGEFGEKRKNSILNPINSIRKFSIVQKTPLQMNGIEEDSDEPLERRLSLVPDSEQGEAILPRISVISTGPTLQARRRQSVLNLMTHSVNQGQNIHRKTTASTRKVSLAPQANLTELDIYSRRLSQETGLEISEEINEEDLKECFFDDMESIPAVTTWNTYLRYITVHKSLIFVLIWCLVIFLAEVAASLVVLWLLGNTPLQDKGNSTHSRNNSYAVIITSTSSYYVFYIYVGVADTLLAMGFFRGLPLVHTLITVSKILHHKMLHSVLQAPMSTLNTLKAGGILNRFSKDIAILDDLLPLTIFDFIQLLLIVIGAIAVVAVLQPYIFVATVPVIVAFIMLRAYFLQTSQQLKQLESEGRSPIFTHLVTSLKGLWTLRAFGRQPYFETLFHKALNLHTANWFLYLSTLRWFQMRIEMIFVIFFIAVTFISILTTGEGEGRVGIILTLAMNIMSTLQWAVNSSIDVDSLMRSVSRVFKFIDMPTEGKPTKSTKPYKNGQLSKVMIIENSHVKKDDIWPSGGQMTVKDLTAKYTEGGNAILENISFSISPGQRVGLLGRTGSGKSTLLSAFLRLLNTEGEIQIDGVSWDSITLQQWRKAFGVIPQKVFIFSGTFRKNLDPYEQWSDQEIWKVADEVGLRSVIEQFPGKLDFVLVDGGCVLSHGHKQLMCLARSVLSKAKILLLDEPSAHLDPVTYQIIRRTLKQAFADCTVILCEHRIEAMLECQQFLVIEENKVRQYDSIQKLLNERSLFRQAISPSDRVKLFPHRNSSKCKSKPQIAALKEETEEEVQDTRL

SMILES | EC30
CC(C)COc1cc(F)cc(-c2ccc(C(=O)NS(=O)(=O)c3cccc(N)n3)c(OCC3CCCCC3)n2)c1 [Compound 1395, N-[(6-amino-2-pyridyl)sulfonyl]-2-(cyclohexylmethoxy)-6-(3-fluoro-5-isobutoxy-phenyl)pyridine-3-carboxamide] | +++ (“+++” means <3 uM)
CC(C)COc1cc(F)cc(-c2ccc(C(=O)NS(=O)(=O)c3ccccc3)c(N3C[C@H](C)CC3(C)C)n2)c1 [Compound 1396, N-(benzenesulfonyl)-6-(3-fluoro-5-isobutoxy-phenyl)-2-[(4R)-2,2,4-trimethylpyrrolidin-1-yl]pyridine-3-carboxamide] | +++ (“+++” means <3 uM)
CCC(CC)Nc1ccc(-c2ccc(C(=O)NS(=O)(=O)c3cccc(N)n3)c(N3[C@H](C)CC[C@@H]3C)n2)cn1 [Compound 1397, N-[(6-amino-2-pyridyl)sulfonyl]-2-[(2R,5S)-2,5-dimethylpyrrolidin-1-yl]-6-[6-(1-ethylpropylamino)-3-pyridyl]pyridine-3-carboxamide] | +++ (“+++” means <3 uM)
CC(C)CNc1ccc(-c2ccc(C(=O)NS(=O)(=O)c3cccc(N)n3)c(N3[C@H](C)CC[C@@H]3C)n2)cn1 [Compound 1398, N-[(6-amino-2-pyridyl)sulfonyl]-2-[(2S,5R)-2,5-dimethylpyrrolidin-1-yl]-6-[6-(isobutylamino)-3-pyridyl]pyridine-3-carboxamide] | ++ (“++” means between 3 uM and 10 uM)
CC(C)[C@H](C)Nc1ccc(-c2ccc(C(=O)NS(=O)(=O)c3cccc(N)n3)c(N3[C@H](C)CC[C@@H]3C)n2)cn1 [Compound 1399, N-[(6-amino-2-pyridyl)sulfonyl]-6-[6-[[(1 S)-1,2-dimethylpropyl]amino]-3-pyridyl]-2-[(2S,5R)-2,5-dimethylpyrrolidin-1-yl]pyridine-3-carboxamide] | +++ (“+++” means <3 uM)
[2H]C1([2H])[C@@H](C)CC(C)(C)N1c1nc(-c2cc(F)cc(OCC(C)C)c2)ccc1C(=O)NS(=O)(=O)c1cccc(N)n1 [Compound 1400, N-[(6-amino-2-pyridyl)sulfonyl]-2-[(3S)-2,2-dideuterio-3,5,5-trimethyl-pyrrolidin-1-yl]-6-(3-fluoro-5-isobutoxy-phenyl)pyridine-3-carboxamide] | +++ (“+++” means <3 uM)
CC(C)(C)c1ccc(C(=O)NS(=O)(=O)c2cccc(N)n2)c(N2CC3CC(C3)C2)n1 [Compound 1401, N-[(6-amino-2-pyridyl)sulfonyl]-2-(3-azabicyclo[3.1.1]heptan-3-yl)-6-tert-butyl-pyridine-3-carboxamide] | +++ (“+++” means <3 uM)
Cc1cc(C)c(Oc2nc(C3=CCC(C(F)(F)F)CC3)ccc2C(=O)NS(=O)(=O)c2cccc(N)n2)c(C)c1 (stereo not shown) [Compound 1402, N-[(6-amino-2-pyridyl)sulfonyl]-6-[4-(trifluoromethyl)cyclohexen-1-yl]-2-(2,4,6-trimethylphenoxy)pyridine-3-carboxamide] | +++ (“+++” means <3 uM)
CCOc1cccc2c1CN(Cc1c(C)cc(C)cc1C)C2(C)C(=O)NS(=O)(=O)c1cccc(F)c1OC (stereo not shown) [Compound 1403, 4-ethoxy-N-(3-fluoro-2-methoxy-phenyl)sulfonyl-1-methyl-2-[(2,4,6-trimethylphenyl)methyl]isoindoline-1-carboxamide] | +++ (“+++” means <3 uM)
CC1CN(c2nc(C(C)(C)C)c(C3=CCN(C(=O)OCc4ccccc4)CC3)cc2C(=O)NS(=O)(=O)c2cccc(N)n2)C(C)(C)C1 (stereo not shown) [Compound 1404, benzyl 4-[5-[(6-amino-2-pyridyl)sulfonylcarbamoyl]-2-tert-butyl-6-(2,2,4-trimethylpyrrolidin-1-yl)-3-pyridyl]-3,6-dihydro-2H-pyridine-1-carboxylate] | +++ (“+++” means <3 uM)
CC1CN(c2nc(C(C)(C)C)c(C3=CC(=O)CC(C)(C)C3)cc2C(=O)NS(=O)(=O)c2cccc(N)n2)C(C)(C)C1 (stereo not shown) [Compound 1405, N-[(6-amino-2-pyridyl)sulfonyl]-6-tert-butyl-5-(5,5-dimethyl-3-oxo-cyclohexen-1-yl)-2-(2,2,4-trimethylpyrrolidin-1-yl)pyridine-3-carboxamide] | +++ (“+++” means <3 uM)
Cc1cc(OCC(C)C)nn1-c1ccc(C(=O)NS(=O)(=O)c2cccc(N)n2)c(N2C[C@@H](C)CC2(C)C)n1 [Compound 1407, N-[(6-amino-2-pyridyl)sulfonyl]-6-(3-isobutoxy-5-methyl-pyrazol-1-yl)-2-[(4S)-2,2,4-trimethylpyrrolidin-1-yl]pyridine-3-carboxamide] | +++ (“+++” means <3 uM)
CCOc1cccc2c1CN(Cc1ccccc1C)C2(C)C(=O)NS(=O)(=O)c1cccc(N)n1 (stereo not shown) [Compound 1408, N-[(6-amino-2-pyridyl)sulfonyl]-4-ethoxy-1-methyl-2-(o-tolylmethyl)isoindoline-1-carboxamide] | +++ (“+++” means <3 uM)
CC(C)COc1cc(F)cc(-c2nc(N3C[C@@H](C)CC3(C)C)ccc2C(=O)NS(=O)(=O)c2cccc(N)n2)c1 [Compound 1409, N-[(6-amino-2-pyridyl)sulfonyl]-2-(3-fluoro-5-isobutoxy-phenyl)-6-[(4S)-2,2,4-trimethylpyrrolidin-1-yl]pyridine-3-carboxamide] | +++ (“+++” means <3 uM)
Cc1cc(C)c(Oc2nc(C3=CC4CCC3(C)C4(C)C)ccc2C(=O)NS(=O)(=O)c2cccc(N)n2)c(C)c1 (stereo not shown) [Compound 1410, N-[(6-amino-2-pyridyl)sulfonyl]-6-(4,7,7-trimethyl-3-bicyclo[2.2.1]hept-2-enyl)-2-(2,4,6-trimethylphenoxy)pyridine-3-carboxamide] | +++ (“+++” means <3 uM)
CC(C)Cc1ccn(-c2ccc(C(=O)NS(=O)(=O)c3cccc(N)n3)c(N3C[C@@H](C)CC3(C)C)n2)n1 [Compound 1411, N-[(6-amino-2-pyridyl)sulfonyl]-6-(3-isobutylpyrazol-1-yl)-2-[(4S)-2,2,4-trimethylpyrrolidin-1-yl]pyridine-3-carboxamide] | +++ (“+++” means <3 uM)
Cc1cc(C)c(Oc2nc(C3=COCC3)ccc2C(=O)NS(=O)(=O)c2cccc(N)n2)c(C)c1 [Compound 1412, N-[(6-amino-2-pyridyl)sulfonyl]-6-(2,3-dihydrofuran-4-yl)-2-(2,4,6-trimethylphenoxy)pyridine-3-carboxamide] | +++ (“+++” means <3 uM)
CCOc1cccc2c1CN(Cc1c(C)cc(C)cc1C)C2(C)C(=O)NS(=O)(=O)c1ccc(N)nc1 (stereo not shown) [Compound 1413, N-[(6-amino-3-pyridyl)sulfonyl]-4-ethoxy-1-methyl-2-[(2,4,6-trimethylphenyl)methyl]isoindoline-1-carboxamide] | +++ (“+++” means <3 uM)
CC(C)COc1cc(F)cc(-c2ccc(C(=O)NS(=O)(=O)N3CCCC(N(C)C)C3)c(N3CC(C)CC3(C)C)n2)c1 (stereo not shown) [Compound 1414, N—[[3-(dimethylamino)-1-piperidyl]sulfonyl]-6-(3-fluoro-5-isobutoxy-phenyl)-2-(2,2,4-trimethylpyrrolidin-1-yl)pyridine-3-carboxamide] | +++ (“+++” means <3 uM)
CCOc1cccc2c1CN(Cc1c(C)cc(C)cc1C)C2(C)C(=O)NS(=O)(=O)c1cccc(NC(C)=O)n1 (stereo not shown) [Compound 1415, N-[(6-acetamido-2-pyridyl)sulfonyl]-4-ethoxy-1-methyl-2-[(2,4,6-trimethylphenyl)methyl]isoindoline-1-carboxamide] | +++ (“+++” means <3 uM)
Cc1cc(C)c(Oc2nc(N(C)CC(C)C)c(C)cc2C(=O)NS(=O)(=O)c2cccc(N)n2)c(C)c1 [Compound 1416, N-[(6-amino-2-pyridyl)sulfonyl]-6-[isobutyl(methyl)amino]-5-methyl-2-(2,4,6-trimethylphenoxy)pyridine-3-carboxamide] | +++ (“+++” means <3 uM)
Cc1ccc(NCC(C)C)nc1-c1ccc(C(=O)NS(=O)(=O)c2cccc(N)n2)c(N2CC(C)CC2(C)C)n1 (stereo not shown) [Compound 1417, N-[(6-amino-2-pyridyl)sulfonyl]-6-[6-(isobutylamino)-3-methyl-2-pyridyl]-2-(2,2,4-trimethylpyrrolidin-1-yl)pyridine-3-carboxamide] | ++ (“++” means between 3 uM and 10 uM)
CC(C)COc1cc(F)cc(-c2ccc(C(=O)NS(=O)(=O)c3cccc(N)n3)c(OCCC3CCC3)n2)c1 [Compound 1418, N-[(6-amino-2-pyridyl)sulfonyl]-2-(2-cyclobutylethoxy)-6-(3-fluoro-5-isobutoxy-phenyl)pyridine-3-carboxamide] | +++ (“+++” means <3 uM)
CC1CN(c2nc(C(C)(C)C)c(C#N)cc2C(=O)NS(=O)(=O)c2cccc(N)n2)C(C)(C)C1 (stereo not shown) [Compound 1419, N-[(6-amino-2-pyridyl)sulfonyl]-6-tert-butyl-5-cyano-2-(2,2,4-trimethylpyrrolidin-1-yl)pyridine-3-carboxamide] | +++ (“+++” means <3 uM)
Cc1ccc(C(=O)NS(=O)(=O)c2cccc(N)n2)c(N2C[C@@H](C)CC2(C)C)n1 [Compound 1420, N-[(6-amino-2-pyridyl)sulfonyl]-6-methyl-2-[(4S)-2,2,4-trimethylpyrrolidin-1-yl]pyridine-3-carboxamide] | ++ (“++” means between 3 uM and 10 uM)
CCOc1cccc2c1CN(Cc1cc(F)cc(OC)c1)C2(C)C(=O)NS(=O)(=O)c1cccc(N)n1 (stereo not shown) [Compound 1421, N-[(6-amino-2-pyridyl)sulfonyl]-4-ethoxy-2-[(3-fluoro-5-methoxy-phenyl)methyl]-1-methyl-isoindoline-1-carboxamide] | +++ (“+++” means <3 uM)
CCOc1cccc2c1CN(Cc1c(C)cc(C)cc1C)C2(C)C(=O)NS(=O)(=O)c1ccc2c(c1)CCN2 (stereo not shown) [Compound 1422, 4-ethoxy-N-indolin-5-ylsulfonyl-1-methyl-2-[(2,4,6-trimethylphenyl)methyl]isoindoline-1-carboxamide] | +++ (“+++” means <3 uM)
C=C(C)c1ccc(C(=O)NS(=O)(=O)c2cccc(N)n2)c(N2C[C@@H](C)CC2(C)C)n1 [Compound 1423, N-[(6-amino-2-pyridyl)sulfonyl]-6-isopropenyl-2-[(4S)-2,2,4-trimethylpyrrolidin-1-yl]pyridine-3-carboxamide] | +++ (“+++” means <3 uM)
